Experimental data taken from US12384776B2, “Compounds and uses thereof” (Foghorn Therapeutics Inc., priority 2019, dated 2025).

target: Nanoluciferase-BRD9 fusion protein (3×FLAG-NLuc-BRD9) in SYO-1 cells (Homo sapiens (Human), UniProt Q9H8M2); experiment: SYO1 BRD9 NanoLuc degradation assay; type: cell-based; settings: SYO-1 cells expressing 3×FLAG-NLuc-BRD9, 6 hours incubation, top dose 1 μM
Summary of the method: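 Stable SYO-1 line expressing 3×FLAG-NLuc-BRD9, treated with 10-point 3-fold dilutions (top 1 μM final) for 6 hours. Nanoluciferase luminescence read with Nano-Glo reagent. % inhibition relative to DMSO (high control) and 1 μM reference BRD9 degrader (low control).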

Chain of Nanoluciferase-BRD9 fusion protein (3×FLAG-NLuc-BRD9) in SYO-1 cells (Q9H8M2 whole entry, the tested form may be a part): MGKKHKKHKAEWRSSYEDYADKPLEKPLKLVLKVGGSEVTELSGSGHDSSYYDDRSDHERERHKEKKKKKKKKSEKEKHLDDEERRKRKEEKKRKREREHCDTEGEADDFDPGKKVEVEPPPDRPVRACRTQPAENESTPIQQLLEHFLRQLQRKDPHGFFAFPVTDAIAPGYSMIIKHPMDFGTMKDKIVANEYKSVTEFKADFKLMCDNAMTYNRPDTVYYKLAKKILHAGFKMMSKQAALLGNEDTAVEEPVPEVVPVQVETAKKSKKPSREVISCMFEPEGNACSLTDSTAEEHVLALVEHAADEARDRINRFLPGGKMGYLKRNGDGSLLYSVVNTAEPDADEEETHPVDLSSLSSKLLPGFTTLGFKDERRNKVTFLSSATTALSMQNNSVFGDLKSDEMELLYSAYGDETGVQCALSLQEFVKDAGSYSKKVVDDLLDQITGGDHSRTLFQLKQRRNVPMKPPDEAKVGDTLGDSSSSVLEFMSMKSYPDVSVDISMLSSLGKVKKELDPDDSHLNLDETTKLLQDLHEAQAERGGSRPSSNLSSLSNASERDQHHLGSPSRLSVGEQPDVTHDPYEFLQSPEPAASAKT

SMILES	IC50
COc1cc(-c2cn(C)c(=O)c3c2COC3)cc(OC)c1CN1CC(CN2CCC3(CC2)CN(c2ccc4c(c2)C(=O)N(C2CCC(=O)NC2=O)C4)C3)C1 (stereo not shown) [Compound D302]	< 0.01 µM
CNC(=O)N1CCc2c(-c3cc(OC)c(CN4CC5(CCN(C(C)(C)C#Cc6ccc7c(c6)C(=O)N(C6CCC(=O)NC6=O)C7=O)CC5)C4)c(OC)c3)cn(C)c(=O)c2C1 (stereo not shown) [Compound D126]	0.1 to 1 µM
COc1cc(-c2cn(C)c(=O)c3c2CCN(C(=O)NCCN2CCN(c4ccc5c(c4)C(=O)N(C4CCC(=O)NC4=O)C5=O)CC2)C3)cc(OC)c1CN(C)C (stereo not shown) [Compound D150]	0.01 to 0.1 µM
COc1cc(-c2cn(C)c(=O)c3c2CCN(C(=O)NC2CC4(CCN(CCCN5CCN(c6ccc7c(c6)C(=O)N(C6CCC(=O)NC6=O)C7=O)CC5)CC4)C2)C3)cc(OC)c1CN(C)C (stereo not shown) [Compound D216]	≥ 1 µM
COc1cc(-c2cn(C)c(=O)c3c2CCN(C(=O)NCC2CC4CN(c5ccc6c(c5)C(=O)N([C@H]5CCC(=O)NC5=O)C6=O)CC4C2)C3)cc(OC)c1CN(C)C (stereo partly shown) [Compound D122]	0.01 to 0.1 µM
CNC(=O)N1CCc2c(-c3cc(OC)c(CN4CCC(C5(CN6CCN(c7ccc8c(c7)C(=O)N(C7CCC(=O)NC7=O)C8=O)CC6)CC5)CC4)c(OC)c3)cn(C)c(=O)c2C1 (stereo not shown) [Compound D174]	< 0.01 µM
CNC(=O)N1CCc2c(-c3cc(OC)c(CN4CC(S(=O)(=O)NCCOc5cccc6c5C(=O)N(C5CCC(=O)NC5=O)C6=O)C4)c(OC)c3)cn(C)c(=O)c2C1 (stereo not shown) [Compound D282]	0.1 to 1 µM

Next, values leading:

IC50	SMILES
0.1 to 1 µM	COc1cc(-c2cn(C)c(=O)c3c2CCN(C(=O)NCC2CC4(CCN(CCCOc5ccc6c(c5)C(=O)N(C5CCC(=O)NC5=O)C6=O)CC4)CO2)C3)cc(OC)c1CN(C)C (stereo not shown) [Compound D233]
< 0.01 µM	CNC(=O)N1CCc2c(-c3cc(OC)c(CN4CCC(CCN5CCCN(c6ccc7c(c6)C(=O)N(C6CCC(=O)NC6=O)C7=O)CC5)CC4)c(OC)c3)cn(C)c(=O)c2C1 (stereo not shown) [Compound D198]
< 0.01 µM	CNC(=O)N1CCc2c(-c3cc(OC)c(CN4CCC(CN5CCC6(CC5)CN(c5ccc7c(c5)C(=O)N(C5CCC(=O)NC5=O)C7=O)C6)CC4)c(OC)c3)cn(C)c(=O)c2C1 (stereo not shown) [Compound D136]
< 0.01 µM	CNC(=O)N1CCc2c(-c3cc(OC)c(CN4CCN(CCC5CCN(c6ccc7c(c6)C(=O)N(C6CCC(=O)NC6=O)C7=O)CC5)CC4C)c(OC)c3)cn(C)c(=O)c2C1 (stereo not shown) [Compound D99]
0.1 to 1 µM	COc1cc(-c2cn(C)c(=O)c3c2CCN(C(=O)NC2CC4CN(CCCCN5CCN(c6ccc7c(c6)C(=O)N(C6CCC(=O)NC6=O)C7=O)CC5)CC4C2)C3)cc(OC)c1CN(C)C (stereo not shown) [Compound D245]
0.1 to 1 µM	CNC(=O)N1CCc2c(-c3cc(OC)c(CN4CC(S(=O)(=O)NCCCOc5ccc6c(c5)C(=O)N(C5CCC(=O)NC5=O)C6=O)C4)c(OC)c3)cn(C)c(=O)c2C1 (stereo not shown) [Compound D277]
0.1 to 1 µM	COc1cc(-c2cn(C)c(=O)c3c2CCN(C(=O)NCC2CC24CCN(CCCOc2ccc5c(c2)C(=O)N(C2CCC(=O)NC2=O)C5=O)CC4)C3)cc(OC)c1CN(C)C (stereo not shown) [Compound D242]

same assay, conditions: SYO-1 cells, 6 hours, Table 6C

SMILES	IC50
COc1cc(-c2cn(C)c(=O)c3c2CCN(C(=O)NCC(F)F)C3)cc(OC)c1CN1CCN(CCC2CCN(c3ccc4c(c3)CN(C3CCC(=O)NC3=O)C4=O)CC2)CC12CCC2 (stereo not shown) [Compound D322]	< 0.01 µM
CNC(=O)N1CCc2c(-c3cc(OC)c(CN4[C@H](C)CN(CCC5CCN(c6ccc7c(c6)CN(C6CCC(=O)NC6=O)C7=O)CC5)C[C@H]4C)c(OC)c3)cn(C)c(=O)c2C1 (stereo partly shown) [Compound D325]	< 0.01 µM

Second part, the molecule after the results:

IC50	SMILES
≥ 1 µM	CNC(=O)N1CCc2c(-c3cc(OC)c(CN4CCN(CCC5CCN(c6ccc7c(c6)C(=O)N(C6CCC(=O)N(C)C6=O)C7)CC5)CC4)c(OC)c3)cn(C)c(=O)c2C1 (stereo not shown) [Compound D305]
< 0.01 µM	COc1cc(-c2cn(C)c(=O)c3c2CCC3)cc(OC)c1CN1CCN(c2ccc3c(c2)C(=O)N(C2CCC(=O)NC2=O)C3)CC1 (stereo not shown) [Compound D364]
< 0.01 µM	CNC(=O)N1CCc2c(-c3cc(OC)c(CN4CCC(CN5CCC6(CC5)CC(Oc5ccc7c(c5)C(=O)N(C5CCC(=O)NC5=O)C7=O)C6)CC4)c(OC)c3)cn(C(F)F)c(=O)c2C1 (stereo not shown) [Compound D338]
